Results published in patent US20250205276A1, “COMPOSITIONS AND METHODS OF TREATMENT OF DISEASE USING COMBINATION OF A NITRODILATOR AND A NITROGEN OXIDE COMPOUND” (LOMA LINDA UNIVERSITY, priority 2022, published 2025).
Read-outs that look alike come from different tables or passages of the source.

Experiments:
[1] = system: isolated sheep mesenteric arteries; experiment: Relaxation of endothelium-denuded sheep mesenteric arteries contracted with 5-HT; type: cell-based; conditions: for enabling of inhibition of vasodilation by CPTIO: SOD1 1000 U/ml, converts HNO into NO
Procedure: Isolated sheep mesenteric arteries were denuded of endothelium and contracted with 10 μM 5-HT (n=5). FIG. 5A presents examples of relaxation traces (one animal, six arterial strips) of NTG in the absence and presence of an sGC inhibitor (ODQ) (10 μM) or superoxide dismutase (SOD1) (1000 U/ml, converts HNO into NO), or the extracellular NO scavenger CPTIO (200 μM), or SOD1 and CPTIO together. All traces were normalized for comparison of extent of relaxation.
FIG. 5B is a graphical representation of the amplification of the area in the red circle in ‘A’. FIG. 5C is a graphical representation of the effects of SOD1, CPTIO, SOD1+CPTIO, and ODQ on relaxation in response to Nitroglycerin. FIG. 5D is a graphical representation of the effects of SOD1, CPTIO, and SOD1+CPTIO on relaxation in response to nitrosoglutathione (GSNO). SOD1, via putative conversion of HNO to NO, enables the inhibitory effects of CPTIO on relaxation caused by NTG and GSNO.
As discussed above, there are reasons to doubt whether NO itself is the mediator of sGC activation in the NANOS model. Rather, an equivalent of NO may be released by activation of the NANOS. […] The NO equivalent has HNO-like characteristics. […] Isolated sheep mesenteric arteries were denuded of endothelium and contracted with 10 μM 5-HT (n=5). FIG. 5A presents examples of relaxation traces (one animal, six arterial strips) of NTG in the absence and presence of an sGC inhibitor (ODQ) (10 μM) or superoxide dismutase (SOD1) (1000 U/ml, converts HNO into NO, or the extracellular NO scavenger CPTIO (200 μM), or SOD1 and CPTIO together. All traces were normalized for comparison of extent of relaxation. FIG. 5B is a graphical representation of the amplification of the area in the red circle in ‘A’. FIG. 5C is a graphical representation of the effects of SOD1, CPTIO, SOD1+CPTIO, and ODQ on relaxation in response to Nitroglycerin (NTG). FIG. 5D is a graphical representation of the effects of SOD1, CPTIO, and SOD1+CPTIO on relaxation in response to nitrosoglutathione (GSNO). SOD1, via putative conversion of HNO to NO, enables the inhibitory effects of CPTIO on relaxation caused by NTG and GSNO.

[2] = system: mesenteric vasculature of rats; experiment: Mesenteric vasodilatory response to nitrodilators after chronic pretreatment of rats; type: in vivo; conditions: for effect of pretreatment on mesenteric vasodilatory response to nitrodilators: pretreatment for four days
Procedure: (§1) Likewise, NTG has been thought to activate sGC by releasing the NO moiety from its nitrate group via the action of enzymes such as aldehyde dehydrogenase-2. However, this conversion produces nitrite rather than NO, especially at therapeutic NTG concentrations (<1 μM).

[3] = cited from earlier work; for membrane permeability in words: Hogg et al
intact sheep = experiment: Femoral vasodilation in intact sheep treated with L-NAME; type: in vivo; conditions: for femoral vasodilation in response to the SNO: sheep treated with L-NAME
[4] = not told
intact rats = experiment: Femoral vasodilation in intact rats treated with L-NAME; type: in vivo; conditions: for femoral vasodilation in response to the SNO: rats treated with L-NAME
sheep carotid artery = experiment: Mobilization of N15-NOx from sheep carotid artery by intraluminal GSNO (GC-MS); conditions: 2 h, vs control
Procedure: FIG. 4A is an illustration of the protocol. A sheep carotid artery (length 8 cm) was incubated with 10 μM N^15-nitrite in DMEM under 10.5% O2 for 6 h to load the vessel with N^15-NOx (NO metabolites). FIG. 4B is an illustration of the prepared vessels. After extensive washes, the arteries were well sealed and incubated for 2 h with 3 ml 100 μM oxyhemoglobin in HEPES buffer on the extraluminal side and 5 μM GSNO or control (0.7 ml HEPES buffer containing 0.1 mM DTPA) on the luminal side. FIG. 4C is a graphical representation of the response of the arteries exposed to GSNO. The N^15-NOx levels were lower (p=0.0206) in the homogenate of arteries exposed to GSNO. FIG. 4D is a graphical representation of the response of the arteries exposed to intraluminal GSNO. The N^15-NOx in extraluminal buffer was higher (p=0.0400) in the arteries exposed to intraluminal GSNO. N^15-NOx was measured by GC-MS. The results are consistent with intraluminal GSNO stimulating an efflux of NOx from the vascular smooth muscle as manifested by a decrease in intracellular NOx and an increase in extracellular NOx.
DNICs function as an intracellular NO store. NO can be stored as DNICs in ferritin, a cytosolic protein that stores and releases iron in controlled fashion. […] N^15-NOx was measured by GC-MS. […]

[5] = system: isolated sheep femoral arteries; experiment: Use-dependent loss of vasodilatory response to GSNO in isolated arteries, potentiation and reversal; type: cell-based
Procedure: To increase the store experimentally, isolated sheep femoral arteries were pre-exposed to 1 μM nitrite, a concentration two-to-three orders of magnitude below which nitrite itself causes vasodilation.

[6] = Ability to release NO / stability
isolated arteries = experiment: Vasodilation of isolated arteries (potency, sustainability); type: cell-based; conditions: read-out: EC50 (vasodilatory sensitivity)
Procedure: as §1

coronary arteries = system: coronary arteries
Text: SNOs, DNICs, heme-NO, nitroprusside, NTG, and other nitrodilators, dilate vessels via activation of soluble guanylyl cyclase (sGC) in vascular smooth muscle cells. These nitrodilators have potent NO-mimetic vasoactivities despite not releasing requisite amounts of free NO. These nitrodilators activate sGC via a preformed NANOS found within the vascular smooth muscle cell. Other examples of the nitrodilators include, but are not limited to, isosorbide dinitrate, isosorbide mononitrate, and nitrosyl complexes with metals or metalloproteins with metals other than iron.

newborn lambs = conditions: low micromolar intravenous nitrite
sGC-cGMP pathway = experiment: Potentiation of nitrodilator vasodilation by sGC-cGMP pathway agents in vitro; type: cell-based
Text: In certain embodiments, the combined application of a nitrodilator and a nitrogen oxide compound is affected by a perturbation in the sGC-cGMP pathway. Vasodilation mediated by the nitrodilator and/or nitrogen oxide compound can be further facilitated by agents that enhance the sGC-cGMP pathway. Such agents include sGC stimulators and activators, cGMP-phosphodiesterase inhibitors, and others. The sGC stimulators directly activate reduced-heme-containing sGC that generates cGMP to cause vasodilation. The sGC activators activate sGC when the heme is oxidized or the heme moiety is missing. A sGC stimulator can be riociguat or vericiguat. The sGC activator can be runcaciguat, cinaciguat, ataciguat, or kynurenine. The cGMP-phosphodiesterase inhibitors, such as sildenafil, vardenafil, and tadalafil, stabilize cGMP via preventing its degradation by phosphodiesterase-5. […] Certain embodiments include methods of treating a vascular condition or a respiratory condition in a human subject by administering a therapeutically effective amount of a nitrogen oxide compound and a cGMP-phosphodiesterase inhibitor. […] The potentiation effects of riociguat and sildenafil on vasodilation by nitrodilators including GSNO have been confirmed in vitro.

In the case of `CC1(C)N([O])C(c2ccc(C(=O)O)cc2)=[N+]([O-])C1(C)C` [CPTIO], the “effect on NTG- or GSNO-mediated relaxation” value ([1]; CPTIO 200 μM) is reported as “does not affect”.
For `[Cl][Cu]` [CuCl], the “enabling of inhibition of vasodilation by CPTIO” value [1] was “enable the inhibitory effects of CPTIO”.
For `COC(=O)[C@H](N)CCCNC(=N)N[N+](=O)[O-]` [D-NAME, D-NG-Nitro arginine methyl ester], the “effect of chronic pretreatment on mesenteric vasodilation by GSNO, glut-BDNIC and NTG” value [2] was “potentiated” and the “effect of pretreatment on mesenteric vasodilatory response to nitrodilators” value (from here on “effect of pretreatment”) [2] was “potentiated”.
For `N[C@H](CSN=O)C(=O)O` [D-cysNO], the “membrane permeability in words” value [3] is listed as “largely membrane-impermeable”, the “femoral vasodilation in response to the SNO” value (“femoral vasodilation” for short) (intact sheep) is listed as “greatly diminished or even absent” and the Membrane permeability [4] is listed as “−”. The “femoral vasodilation” value (intact rats) was “greatly diminished or even absent”.
In the case of `N[C@@H](CCC(=O)N[C@@H](CSN=O)C(=O)NCC(=O)O)C(=O)O` [GSNO, S-nitroso-glutathione], the “membrane permeability in words” value [3] is given as “largely membrane-impermeable”, the “membrane permeability, fold less than L-cysNO” value ([3]; relative to L-cysNO) is given as 200 fold and the “femoral vasodilation” value (intact sheep) is given as “greatly diminished or even absent”. The Membrane permeability [4] was “−”, the “N15-NOx levels in homogenate of arteries” value (sheep carotid artery; 5 μM GSNO luminal side, p=0.0206) was “lower” and the “N15-NOx in extraluminal buffer” value (sheep carotid artery; 5 μM intraluminal GSNO, p=0.0400) was “higher”. The “femoral vasodilation” value (intact rats) was “greatly diminished or even absent” and the “loss of initial vasodilatory response to GSNO” value ([5]; isolated vessels, after repeated exposures to GSNO) was roughly 50%.
With `C=CC1=C(C)c2cc3[n-]c(cc4[n-]c(cc5nc(cc1n2)C(C)=C5C=C)c(C)c4CCC(=O)[O-])c(CCC(=O)[O-])c3C.N#[O+].[Fe].[H+].[H+]` [Heme-NO, nitrosyl-heme] the Membrane permeability [4] was “−”.
In the case of `COC(=O)[C@@H](N)CCCNC(=N)N[N+](=O)[O-]` [L-NAME], the “effect of chronic pretreatment on mesenteric vasodilation by GSNO, glut-BDNIC and NTG” value [2] is reported as “potentiated” and the “effect of pretreatment” value [2] is reported as “potentiated”.
For `CNC(=N)NCCC[C@H](N)C(=O)O` [L-NMMA], the “effect of pretreatment” value [2] was “not observed”.
In the case of `N[C@@H](CSN=O)C(=O)O` [L-cysNO, S-nitrosocysteine], the “membrane permeability in words” value [3] is listed as “can be taken up into cells via the L-type amino acid transporter (LAT)”, the “femoral vasodilation” value (intact sheep) is listed as “greatly diminished or even absent” and the Membrane permeability [4] is listed as “+”. For the same molecule, the “femoral vasodilation” value (intact rats) was “greatly diminished or even absent”, the NO moiety released ([6]; over one hour, presence of metal chelator in PBS) was less than 10% and the “stability, fold less stable than GSNO” value ([6]; relative to GSNO) was 10 fold.
For `O=[N+]([O-])OCC(CO[N+](=O)[O-])O[N+](=O)[O-]` [NTG, nitroglycerin], the Membrane permeability [4] was “+” and the EC50 (isolated arteries) was less than 0.1 µM.
For `CC1(C)CC(O)CC(C)(C)N1[O]` [TEMPOL], the “enabling of inhibition of vasodilation by CPTIO” value [1] was “enable the inhibitory effects of CPTIO”.
For `O=NO` [nitrite], the “effect on vasodilatory responses to subsequent SNO infusions in femoral arteries” value (intact sheep; sheep pre-treated with L-NAME, intravenous sub-vasodilatory nitrite) was “potentiated”, the “effect on NTG tolerance of coronary arteries” value (coronary arteries; in vitro) was “reverting NTG tolerance” and the “effect on NTG tolerance of coronary arteries” value (coronary arteries; in vivo) was “reverting NTG tolerance”. The “effect on vasodilatory responses to subsequent SNO infusions in femoral arteries” value (intact rats; rats pre-treated with L-NAME, intravenous sub-vasodilatory nitrite) was “potentiated”, the “effect on vasodilatory responses to GSNO” value ([5]; arteries pre-exposed to 1 μM nitrite) was “potentiate” and the “attenuation of vasodilatory response to GSNO after repeated GSNO exposure” value ([5]; subsequent incubation with 1 μM nitrite for 30 min) was “reversed”. For the same molecule, the “effect on GSNO-mediated vasodilation” value (newborn lambs) was “potentiate”.
For `COC(=O)N(C)c1c(N)nc(-c2nn(Cc3ccccc3F)c3ncccc23)nc1N` [riociguat], the “effect on vasodilation by nitrodilators including GSNO” value (sGC-cGMP pathway) was “potentiation”.
With `CCCc1nn(C)c2c(=O)[nH]c(-c3cc(S(=O)(=O)N4CCN(C)CC4)ccc3OCC)nc12` [sildenafil] the “effect on vasodilation by nitrodilators including GSNO” value (sGC-cGMP pathway) was “potentiation”.
In the case of “SOD1: superoxide dismutase, converts HNO into NO”, the “enabling of inhibition of vasodilation by CPTIO” value [1] is reported as “enables inhibition of vasodilation by CPTIO”.
